Experimental data published in ChEMBL document CHEMBL1201862, “PubChem BioAssay data set” (2004).
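Method: 48-hour compound exposure of cells in 96-well plates, five concentrations, linear interpolation of endpoints. At the GI50, growth is halved.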 Activity calls are given as the source filed them. No stated cut-off is given here; in the data, active = GI50 up to about 1.1 µM and inactive = higher.

Tests used:
Experiment in all cases: NCI anticancer screen, dose series, 48 h
[1] = system: A498
[2] = system: MOLT-4
[3] = system: HCC 2998
[4] = system: A549
[5] = system: UO-31
[6] = system: BT-549
[7] = system: NCI-H460
[8] = system: SK-OV-3
[9] = system: KM12
[10] = system: LOX IMVI
[11] = system: HCT-116
[12] = system: HOP-62
[13] = system: T47D
[14] = system: MDA-N
[15] = system: PC-3
[16] = system: K562
[17] = system: EKVX
[18] = system: ACHN
[19] = system: 786-0
[20] = system: HCT-15

| Structure (SMILES) | GI50 [1] | GI50 [2] | GI50 [3] | GI50 [4] | GI50 [5] | GI50 [6] | GI50 [7] | GI50 [8] | GI50 [9] | GI50 [10] | GI50 [11] | GI50 [12] | GI50 [13] | GI50 [14] | GI50 [15] | GI50 [16] | GI50 [17] | GI50 [18] | GI50 [19] | GI50 [20] [µM] |
| --- | --- | --- | --- | --- | --- | --- | --- | --- | --- | --- | --- | --- | --- | --- | --- | --- | --- | --- | --- | --- |
| CN1CCN(C2=CC(=O)c3c(O)ccc(O)c3C2=O)CC1 | 1.54 µM (inactive) | 1.01 µM (active) | 1.82 µM (inactive) | 1.79 µM (inactive) | 1.55 µM (inactive) | 1.76 µM (inactive) | 1.9 µM (inactive) | 5.02 µM (inactive) | 2.07 µM (inactive) | 0.547 µM (active) | 0.208 µM (active) | 1 µM (active) | 0.69 µM (active) | 0.175 µM (active) | 0.412 µM (active) | 0.347 µM (active) | 1.86 µM (inactive) | 1.54 µM (inactive) | 1.95 µM (inactive) | – |
| C/C1=C/C2=CC(C)C[C@@H]2C(=O)[C@]2(C)C(=O)CC(C)(C)[C@H]2CC1=O (some centres undefined) | > 50 µM (inactive) | > 50 µM (inactive) | > 50 µM (inactive) | > 50 µM (inactive) | > 50 µM (inactive) | > 50 µM (inactive) | > 50 µM (inactive) | > 50 µM (inactive) | > 50 µM (inactive) | > 50 µM (inactive) | > 50 µM (inactive) | – | > 50 µM (inactive) | > 50 µM (inactive) | > 50 µM (inactive) | 32.3 µM (inactive) | > 50 µM (inactive) | > 50 µM (inactive) | > 50 µM (inactive) | > 50 |
| O=c1n(-c2ccccc2)c(=O)n2n1C1CCC2CC1 | > 100 µM (inactive) | > 100 µM (inactive) | – | > 100 µM (inactive) | > 100 µM (inactive) | > 100 µM (inactive) | > 100 µM (inactive) | > 100 µM (inactive) | > 100 µM (inactive) | > 100 µM (inactive) | > 100 µM (inactive) | > 100 µM (inactive) | > 100 µM (inactive) | > 100 µM (inactive) | > 100 µM (inactive) | > 100 µM (inactive) | > 100 µM (inactive) | > 100 µM (inactive) | > 100 µM (inactive) | > 100 |
| Cc1ccc([N+](=O)[O-])c2c(NCCCN(C)C)ccnc12 | 61.4 µM (inactive) | > 100 µM (inactive) | 20.3 µM (inactive) | > 92 µM (inactive) | > 100 µM (inactive) | > 100 µM (inactive) | 23.2 µM (inactive) | – | 69.8 µM (inactive) | 44.2 µM (inactive) | 45.6 µM (inactive) | > 90.4 µM (inactive) | > 100 µM (inactive) | 33.5 µM (inactive) | 33.6 µM (inactive) | 70.8 µM (inactive) | > 49 µM (inactive) | 57 µM (inactive) | 44.8 µM (inactive) | 35 |
| COC(=O)c1cc(Br)c(C(=O)C(Cl)(Cl)Cl)[nH]1 | > 100 µM (inactive) | > 100 µM (inactive) | – | > 100 µM (inactive) | > 100 µM (inactive) | > 100 µM (inactive) | > 100 µM (inactive) | > 100 µM (inactive) | > 100 µM (inactive) | > 100 µM (inactive) | > 100 µM (inactive) | > 100 µM (inactive) | > 100 µM (inactive) | > 100 µM (inactive) | > 100 µM (inactive) | > 100 µM (inactive) | > 100 µM (inactive) | > 100 µM (inactive) | > 100 µM (inactive) | > 100 |
| NC(=O)NCCSC1CCCCC1O (centres undefined) | > 100 µM (inactive) | 26.2 µM (inactive) | – | > 100 µM (inactive) | > 100 µM (inactive) | > 100 µM (inactive) | > 100 µM (inactive) | > 100 µM (inactive) | > 100 µM (inactive) | > 100 µM (inactive) | > 100 µM (inactive) | > 100 µM (inactive) | > 100 µM (inactive) | > 100 µM (inactive) | > 100 µM (inactive) | > 100 µM (inactive) | > 100 µM (inactive) | > 100 µM (inactive) | > 100 µM (inactive) | > 100 |
| Cc1c(OCc2cccc3ccccc23)ccc2c(O)cc(=S)oc12 | 82.2 µM (inactive) | 32 µM (inactive) | 31.4 µM (inactive) | 55.7 µM (inactive) | 33.6 µM (inactive) | 30.9 µM (inactive) | 31.8 µM (inactive) | – | 29.2 µM (inactive) | 22 µM (inactive) | 26.7 µM (inactive) | 37.3 µM (inactive) | 35.2 µM (inactive) | 43.4 µM (inactive) | 35.2 µM (inactive) | 36.1 µM (inactive) | 44.1 µM (inactive) | 34.2 µM (inactive) | 41.8 µM (inactive) | 35.3 |
| CC(=O)N1c2ccccc2C(C)(C)OC1C(Cl)(Cl)Cl (centres undefined) | 37 µM (inactive) | 14.4 µM (inactive) | 23.2 µM (inactive) | 27.7 µM (inactive) | 58.2 µM (inactive) | 35.8 µM (inactive) | 33.3 µM (inactive) | 37.8 µM (inactive) | 30.1 µM (inactive) | – | 28.8 µM (inactive) | 55.8 µM (inactive) | 84.7 µM (inactive) | 26.1 µM (inactive) | 31.8 µM (inactive) | – | 26.2 µM (inactive) | 41.1 µM (inactive) | 39 µM (inactive) | 32.2 |
| CC(=O)OCC1OC(n2c(N)c(C#N)c(-c3ccc(C)cc3)c(C#N)c2=S)C(OC(C)=O)C(OC(C)=O)C1OC(C)=O (centres undefined) | 39.9 µM (inactive) | – | 16.9 µM (inactive) | 16 µM (inactive) | 17.9 µM (inactive) | 37.3 µM (inactive) | 31.4 µM (inactive) | 24.5 µM (inactive) | 79.1 µM (inactive) | 32.7 µM (inactive) | 46.1 µM (inactive) | 20 µM (inactive) | 17.5 µM (inactive) | 17.1 µM (inactive) | 31.8 µM (inactive) | 40.5 µM (inactive) | 18.3 µM (inactive) | 29.1 µM (inactive) | 15.7 µM (inactive) | 38 |
| CCCC(O)c1cn(C(NC(=O)c2ccccc2)P(=O)(OCC)OCC)nn1 (centres undefined) | > 100 µM (inactive) | > 100 µM (inactive) | > 100 µM (inactive) | > 100 µM (inactive) | > 100 µM (inactive) | > 100 µM (inactive) | > 100 µM (inactive) | – | > 100 µM (inactive) | > 100 µM (inactive) | > 100 µM (inactive) | > 100 µM (inactive) | > 100 µM (inactive) | > 100 µM (inactive) | > 100 µM (inactive) | > 100 µM (inactive) | > 100 µM (inactive) | > 100 µM (inactive) | > 100 µM (inactive) | > 100 |
| C#CC1NC(=O)C1N(CC)CC (centres undefined) | > 100 µM (inactive) | > 100 µM (inactive) | > 100 µM (inactive) | – | > 100 µM (inactive) | > 100 µM (inactive) | > 100 µM (inactive) | > 100 µM (inactive) | > 100 µM (inactive) | > 100 µM (inactive) | > 100 µM (inactive) | > 100 µM (inactive) | > 100 µM (inactive) | > 100 µM (inactive) | > 100 µM (inactive) | > 100 µM (inactive) | > 100 µM (inactive) | > 100 µM (inactive) | > 100 µM (inactive) | > 100 |
| CCOc1ccc(N/C(=C(/C(Cl)=C(/Cl)N(CC)CC)[N+](=O)[O-])n2nnc3ccccc32)cc1 | 15 µM (inactive) | > 100 µM (inactive) | > 100 µM (inactive) | 34.4 µM (inactive) | 19.6 µM (inactive) | 19.8 µM (inactive) | 56.5 µM (inactive) | 56.1 µM (inactive) | 12 µM (inactive) | – | 16.7 µM (inactive) | 30.7 µM (inactive) | 14.2 µM (inactive) | 26.7 µM (inactive) | 17.5 µM (inactive) | > 100 µM (inactive) | 23.3 µM (inactive) | 20 µM (inactive) | 17.2 µM (inactive) | 19.1 |
| COc1ccc(/C=C(\NC(=O)c2ccccc2)C(=O)NN(C)c2ccnc3cc(Cl)ccc23)cc1OC | > 100 µM (inactive) | 18.2 µM (inactive) | – | 33 µM (inactive) | 28.2 µM (inactive) | 20.4 µM (inactive) | 19 µM (inactive) | > 100 µM (inactive) | 17.6 µM (inactive) | 18.7 µM (inactive) | 34.6 µM (inactive) | 41.3 µM (inactive) | 30.4 µM (inactive) | 24.5 µM (inactive) | 27.4 µM (inactive) | 18.9 µM (inactive) | 50.7 µM (inactive) | 26.1 µM (inactive) | 27.6 µM (inactive) | 24.7 |
| C[C@@H]1CC[C@H]2[C@H](C)C(OC3O[C@@H]4O[C@@]5(C)CC[C@H]6[C@H](C)CC[C@@H]([C@@H]3C)[C@@]46O5)O[C@@H]3O[C@@]4(C)CC[C@@H]1[C@]32O4 (some centres undefined) | > 100 µM (inactive) | > 100 µM (inactive) | > 100 µM (inactive) | > 100 µM (inactive) | – | > 100 µM (inactive) | > 100 µM (inactive) | > 100 µM (inactive) | > 100 µM (inactive) | > 100 µM (inactive) | > 100 µM (inactive) | > 100 µM (inactive) | > 100 µM (inactive) | > 100 µM (inactive) | > 100 µM (inactive) | > 100 µM (inactive) | > 100 µM (inactive) | > 100 µM (inactive) | > 100 µM (inactive) | > 100 |
| C=C[C@]1(O[Si](C)(C)C)C[C@@]2(C(=O)OCC)C(O)C(=O)N3CCc4cc(OC)c(OC)cc4[C@]312 (some centres undefined) | 40.9 µM (inactive) | > 100 µM (inactive) | – | > 100 µM (inactive) | > 100 µM (inactive) | > 100 µM (inactive) | > 100 µM (inactive) | > 100 µM (inactive) | > 100 µM (inactive) | > 100 µM (inactive) | > 100 µM (inactive) | > 100 µM (inactive) | > 100 µM (inactive) | > 100 µM (inactive) | 93.8 µM (inactive) | > 100 µM (inactive) | > 100 µM (inactive) | > 100 µM (inactive) | > 100 µM (inactive) | > 100 |
